Laboratory results published in US20150031554A1, “EXTRACELLULAR TELOMERE ASSAY” (The UAB Research Foundation, priority 2012, published 2015).

What was measured:
G-quadruplex = details: versus duplex, single strand, and hairpins; method of Balasubramanian et al.; cited from earlier work
[1] = system: human MDA-MB-23 1 breast cancer cells; experiment: Extracellular telomere release into cell-free conditioned media (qPCR); format: cell-based
Description: (§1) The samples to be tested were centrifuged at 1200×g for 6 minutes to remove residual cells. The supernatant was removed and centrifuged at 12,000× for 12 minutes to remove cellular debris. DNA was isolated from the final supernatant using a Qiagen DNA isolation kit. The DNA concentration of each sample was determined with the highly sensitive pico-green fluorometric assay (Invitrogen; Carlsbad, Calif.).
(§2) The obtained purified cell-free DNA was assayed for extracellular telomere sequences. Extracellular telomeres were measured using quantitative PCR (qPCR) with the widely accepted method of Cawthon (“Telomere measurement by quantitative PCR,” Nucleic Acids Research, 30:e47 (2002)). Other DNA sequences (actin, BRCA 1, alpha satellite DNA, and Alu repeats) were analyzed using published primers and conditions. Normal human genomic DNA (Roche; Basel, Switzerland) was used to create a telomere qPCR standard curve for the clinical specimens. For mouse standard curves, normal mouse genomic DNA isolated from murine peripheral blood cells was used.

[2] = system: D54, a human brain cancer cell line; experiment: Extracellular telomere release into conditioned media (qPCR); format: cell-based; details: in response to doxorubicin treatment (FIG. 2B)
Description: as §1, §2

[3] = system: U373, a human brain cancer cell line; experiment: as above; format: cell-based; details: in response to doxorubicin treatment (FIG. 2A)
Description: as §1, §2

## NCCOc1cc(C(=O)Nc2cc(OCCN)c3ccccc3n2)nc(C(=O)Nc2cc(OCCN)c3ccccc3n2)c1 [compound 2, pyridostatin]
G-quadruplex
  selectivity of capture: selective for G-quadruplex capture over other DNA structural motifs

## COc1cccc2c1C(=O)c1c(O)c3c(c(O)c1C2=O)C[C@@](O)(C(=O)CO)C[C@@H]3O[C@H]1C[C@H](N)[C@H](O)[C@H](C)O1 [doxorubicin]
[1]; doxorubicin 10^−5 M, indicated times, Alu and alpha satellite sequences as controls (FIG. 1)
  extracellular telomere release: specifically released
[1]; qPCR, compared with untreated cells or cells subjected to hypoxia, 2 independent experiments (FIG. 5)
  telomere enrichment in cell-free conditioned media: highly enriched
[2]
  extracellular telomere release: extracellular telomere release
[3]
  extracellular telomere release: extracellular telomere release
